Literature values, collected in PubChem BioAssay AID1259409 (Chemical Carcinogenesis Research Information System (CCRIS), 2018).

Test system: rodent chemically induced tumor inhibition, incidence and multiplicity
Experiment: CCRIS tumor inhibitor studies
Settings: Dose [Inhibitor]: 0

For `O=C(OC[C@@H]1O[C@H](OC(=O)c2cc(O)c(O)c(OC(=O)c3cc(O)c(O)c(O)c3)c2)[C@@H](OC(=O)c2cc(O)c(O)c(OC(=O)c3cc(O)c(O)c(O)c3)c2)[C@H](OC(=O)c2cc(O)c(O)c(OC(=O)c3cc(O)c(O)c(O)c3)c2)[C@H]1OC(=O)c1cc(O)c(O)c(OC(=O)c2cc(O)c(O)c(O)c2)c1)c1cc(O)c(O)c(OC(=O)c2cc(O)c(O)c(O)c2)c1`, the “tumour outcome (control, treated, inhibition, significance)” value (Carcinogen: 7,12-DIMETHYLBENZ[A]ANTHRACENE : 57-97-6, 17 MG 2/WK FOR 20 WK APPLIED 24 HR POST EACH PROMOTER DOSE (STUDY DURATION: 22 WK), Route [Inhibitor]: DERMAL, Species: MOUSE, Strain/Sex: CF-1/FEMALE, Target Tissue: Type of Lesion: SKIN: PAPILLOMA, Dose [Carcinogen]: 25.6 UG IN 0.2 ML ACETONE ONCE, Promoter: 12-O-TETRADECANOYLPHORBOL-13-ACETATE, 16561-29-8) is given as 90%, 98%, -9%, not calculated, the “tumour outcome (control, treated, inhibition, significance)” value (Carcinogen: 7,12-DIMETHYLBENZ[A]ANTHRACENE, 57-97-6, 1% IN DIET FOR 35 WK BEGINNING POST CARCINOGEN DOSE (STUDY DURATION: 36 WK), Route [Inhibitor]: ORAL, Species: RAT, Strain/Sex: SPRAGUE-DAWLEY/FEMALE, Target Tissue: Type of Lesion: EAR DUCT: TUMOR, Dose [Carcinogen]: 50 MG/KG BW IN CORN OIL ONCE, Promoter: NONE USED) is given as 5/15 (33%), 5/15 (33%), 0%, not significant and the “tumour outcome (control, treated, inhibition, significance)” value (Carcinogen: 7,12-DIMETHYLBENZ[A]ANTHRACENE, 57-97-6, 1% IN DIET FOR 35 WK BEGINNING POST CARCINOGEN DOSE (STUDY DURATION: 36 WK), Route [Inhibitor]: ORAL, Species: RAT, Strain/Sex: SPRAGUE-DAWLEY/FEMALE, Target Tissue: Type of Lesion: MAMMARY GLAND: ADENOCARCINOMA, Dose [Carcinogen]: 50 MG/KG BW IN CORN OIL ONCE, Promoter: NONE USED) is given as 14/15 (93%), 12/15 (80%), 14%, not significant. For the same molecule, the “tumour outcome (control, treated, inhibition, significance)” value (Carcinogen: 7,12-DIMETHYLBENZ[A]ANTHRACENE, 57-97-6, 1% IN DIET FOR 35 WK BEGINNING POST CARCINOGEN DOSE (STUDY DURATION: 36 WK), Route [Inhibitor]: ORAL, Species: RAT, Strain/Sex: SPRAGUE-DAWLEY/FEMALE, Target Tissue: Type of Lesion: MAMMARY GLAND: FIBROADENOMA, Dose [Carcinogen]: 50 MG/KG BW IN CORN OIL ONCE, Promoter: NONE USED) was 3/15 (20%), 2/15 (13%), 35%, not significant, the “tumour outcome (control, treated, inhibition, significance)” value (Carcinogen: 7,12-DIMETHYLBENZ[A]ANTHRACENE, 57-97-6, 2.5 UMOL IN 0.4 ML ACETONE 20 MIN PRIOR TO EACH PROMOTER DOSE (STUDY DURATION: 47 WK), Route [Inhibitor]: DERMAL, Species: MOUSE, Strain/Sex: CF-1/FEMALE, Target Tissue: Type of Lesion: SKIN: PAPILLOMA, Dose [Carcinogen]: 100 NMOL IN 0.2 ML ACETONE ONCE) was 94%, 61%, 35%, not calculated and the “tumour outcome (control, treated, inhibition, significance)” value (Carcinogen: 7,12-DIMETHYLBENZ[A]ANTHRACENE, 57-97-6, 5 UMOL IN 0.4 ML ACETONE 20 MIN PRIOR TO EACH PROMOTER DOSE (STUDY DURATION: 47 WK), Route [Inhibitor]: DERMAL, Species: MOUSE, Strain/Sex: CF-1/FEMALE, Target Tissue: Type of Lesion: SKIN: PAPILLOMA, Dose [Carcinogen]: 100 NMOL IN 0.2 ML ACETONE ONCE) was 94%, 46%, 51%, not calculated. The “tumour outcome (control, treated, inhibition, significance)” value (Carcinogen: 7,12-DIMETHYLBENZ[A]ANTHRACENE, 57-97-6, 10 UMOL IN 0.4 ML ACETONE 20 MIN PRIOR TO EACH PROMOTER DOSE (STUDY DURATION: 47 WK), Route [Inhibitor]: DERMAL, Species: MOUSE, Strain/Sex: CF-1/FEMALE, Target Tissue: Type of Lesion: SKIN: CARCINOMA, Dose [Carcinogen]: 100 NMOL IN 0.2 ML ACETONE ONCE) was 67%, 11%, 84%, not calculated, the “tumour outcome (control, treated, inhibition, significance)” value (Carcinogen: 7,12-DIMETHYLBENZ[A]ANTHRACENE, 57-97-6, 10 UMOL IN 0.4 ML ACETONE 20 MIN PRIOR TO EACH PROMOTER DOSE (STUDY DURATION: 47 WK), Route [Inhibitor]: DERMAL, Species: MOUSE, Strain/Sex: CF-1/FEMALE, Target Tissue: Type of Lesion: SKIN: PAPILLOMA, Dose [Carcinogen]: 100 NMOL IN 0.2 ML ACETONE ONCE) was 94%, 43%, 54%, not calculated and the “tumour outcome (control, treated, inhibition, significance)” value (Carcinogen: 7,12-DIMETHYLBENZ[A]ANTHRACENE, 57-97-6, 17 MG 2/WK FOR 2 WK APPLIED 20 MIN PRIOR TO EACH TPA DOSE (STUDY DURATION: 22 WK), Route [Inhibitor]: DERMAL, Species: MOUSE, Strain/Sex: SENCAR/FEMALE, Target Tissue: Type of Lesion: SKIN: PAPILLOMA, Dose [Carcinogen]: 6.4 UG IN 0.2 ML ACETONE ONCE, Promoter: 12-O-TETRADECANOYLPHORBOL-13-ACETATE, 16561-29-8, MEZEREIN, 34807-41-5, Promoter: 12-O-TETRADECANOYLPHORBOL-13-ACETATE, 16561-29-8, MEZEREIN, 34807-41-5) was 90%, 94%, -4%, not calculated. The “tumour outcome (control, treated, inhibition, significance)” value (Carcinogen: 7,12-DIMETHYLBENZ[A]ANTHRACENE, 57-97-6, 17 MG 2/WK FOR 18 WK APPLIED 20 MIN PRIOR TO EACH MEZEREIN DOSE (STUDY DURATION: 22 WK), Route [Inhibitor]: DERMAL, Species: MOUSE, Strain/Sex: SENCAR/FEMALE, Target Tissue: Type of Lesion: SKIN: PAPILLOMA, Dose [Carcinogen]: 6.4 UG IN 0.2 ML ACETONE ONCE, Promoter: 12-O-TETRADECANOYLPHORBOL-13-ACETATE, 16561-29-8 : MEZEREIN, 34807-41-5, Promoter: 12-O-TETRADECANOYLPHORBOL-13-ACETATE, 16561-29-8 : MEZEREIN, 34807-41-5) was 90%, 62%, 31%, not calculated and the “tumour outcome (control, treated, inhibition, significance)” value (Carcinogen: 7,12-DIMETHYLBENZ[A]ANTHRACENE, 57-97-6, 17 MG 2/WK FOR 20 WK APPLIED 20 MIN PRIOR TO AND 24 HR POST EACH PROMOTER DOSE (STUDY DURATION: 22 WK), Route [Inhibitor]: DERMAL, Species: MOUSE, Strain/Sex: CF-1/FEMALE, Target Tissue: Type of Lesion: SKIN: PAPILLOMA, Dose [Carcinogen]: 25.6 UG IN 0.2 ML ACETONE ONCE, Promoter: 12-O-TETRADECANOYLPHORBOL-13-ACETATE, 16561-29-8) was 90%, 16%, 82%, not calculated.
